Measurements as given in patent EP4613273A1, “TREATMENT OF BONE LOSS” (priority 2024, dated 2025).
Structures can show the parent of a compound that is named as a salt. Where two headings read alike, the source gives them in different places.

Assays:
[1] = test system: dogs with alveolar bone loss induced by spontaneously developed periodontal disease; assay: Alveolar bone loss parameters by CBCT-scan and X-ray radiography in dogs with periodontal disease; format: in vivo; details: CTX-1 responders, Day-90 vs Day-0
Protocol: The present study was performed on 10 Beagle dogs suffering from alveolar bone loss induced by spontaneously developed periodontal disease. All dogs were treated with MIV-701 besylate salt for minimum 30 day and maximum 90 days, depending on the tolerance at intermediate visits. The product is administrated to the dog by its owner at home, once a day with a meal.
There were two treatment groups: • Group A (5 dogs) with a dose of 25 mg/kg. • Group B (5 dogs) with a dose of 50 mg/kg.
Dental imaging was performed at visit V2 (Day 0) and visit V5 (90t 3 days).
Each time a full mouth CBCT-scan was performed together with dental radiographs of selected teeth for the study. The results of these exams were recorded in IMAGING FORM by the Investigator.
Full mouth cone-beam computed tomography (NewTom, 5G XL, Bologna, Italy) was performed at visit V2 (Day 0) and visit V5 (Day 90t 3 days).
The exam was performed only in dogs recruited in Polish site. It was performed under general anesthesia of Investigator's choice and aim at alveolar bone loss measurement.
Scans were analyzed with the use of NNT viewer, software provided by the manufacturer (version: 10.1; QR SRL, Verona, Italy). At both times, the volumetric assessment of dentition was set up for the same high-resolution mode (10 × 10 cm with 0.15 mm layers). Both readings were made in the same orientations of axes and locations measuring alveolar bone loss with the use of maximum magnification (Gawro, Strøm et Nemec 2022). To evaluate the effect of the treatment on the alveolar bone loss, the following three measurements (De Faria Vasconcelos et al. 2012) were performed on the selected teeth for the study: • 1. The height of the alveolar crest (AC), measured from the cementoenamel junction (CEJ) to the upper rim of AC (Figure 12A). • 2. The depth of the defect, measured from the CEJ to the bottom of the defect (Figure 12B). • 3. The width of the defect, measured from the highest point of the AC to the dental root adjacent to the defect (Figure 12C).
Dental radiography was performed at visit V2 (Day 0) and visit V5 (Day 90t 3 days).
To evaluate the effect of the treatment on the alveolar bone loss, the following three measurements (De Faria Vasconcelos et al. 2012) were performed on the selected teeth for the study: • 1. The heigh of the alveolar crest (AC), measured from the cementoenamel junction (CEJ) to the upper rim of AC (Figure 13A). • 2. The depth of the defect, measured from the CEJ to the bottom of the defect (Figure 13B). • 3. The width of the defect, measured from the highest point of the AC to the dental root adjacent to the defect (Figure 13C).
These measurements were performed using digital ruler of the imaging software or external program (i.e., Image J) and recorded in the IMAGING FORM.

[2] = Plasma pharmacokinetic of MIV-701 after single and repeated oral administration of MIV-701 besylate salt in healthy cats; format: in vivo; details: for Cmax at 312 h / Tmax at 312 h / AUC(0-inf) at 312 h / AUC(0-t) at 312 h / half-life at 312 h / Cmax / Tmax at 0 h / AUC(0-inf) / AUC(0-t) / half-life: cat; for AUC(0-inf) at 312 h / AUC(0-inf): read-out: AUC(0-infini) (converted); for AUC(0-t) at 312 h / AUC(0-t): read-out: AUC(0-tfinal) (converted); for half-life at 312 h / half-life: read-out: T1/2 elimination (converted)
Protocol: MIV-701 besylate salt was administered once daily for 14 days to 4 healthy cats at three increasing doses: 2 mg/kg, 10 mg/kg and 50 mg/kg.
The three doses were consecutively administered for 14 days with a >5-day washout period between two dose levels.
Each treatment period can be resumed as follows: • J0 (T+24h): first administration, withdrawal of blood samples for pharmacokinetic and plasma CTX-1 assessment (pre-dose and 0.5h, 1h, 2h, 4h, 8h and 24h after first drug administration), pre-dose blood samples for hematology and clinical biochemistry (baseline values for safety assessment). • J5 ([…]) and J8: pre-dose blood samples. • J13: last administration, withdrawal of plasma samples for pharmacokinetic and plasma CTX-1 assessment (pre-dose and 0.5h, 1h, 2h, 4h, 8h and 24h after last drug administration), pre-dose sampling for hematology and clinical biochemistry (baseline values for safety assessment). • J15 to J≥19: washout period.
After centrifugation of blood samples plasma aliquots were stored at -20°C._After thawing on ice, 30 µL of plasma were transferred into 1.5 ml microtube containing 270 µL acetonitrile. Microtubes were then vigorously stirred and then centrifuged (12000 rpm, 10 min, 4°C) and the supernatant was transferred in Matrix tube for LC-MS/MS analysis.
A calibration curve (9 points, 3 to 30 000 nM) was obtained by spiking plasma samples from naive cats with appropriate quantities of Compound I.
Equipment: LC-MS/MS Acquity I Class-Wevo TQD (Waters®): - Acquity I Class ∘ Column: Waters® Acquity BEH C8, 50*2.1mm, 1.7 µm (40°C) ∘ Mobile phase: • ▪ A: Ammonium Formate 5mM, pH=3.8 • ▪ B: Ammonimuformate 5 mM in CH3CN 5% aqueous, pH=3.8 ∘ Injection volume: 1 µL ∘ Speed: 600 µL/min ∘ Gradient: […]
- Xevo TQD • ∘ Source temperature: 150°C • ∘ Desolvatation temperature: 600°C • ∘ Cone gaz speed: 50L/h • ∘ Desolvatation gaz speed: 1200L/h - Analytes MS characteristics
Terminal elimination half-life (t1/2) was calculated according to the following formula: T1/2 elimination = ln(2)/kel [formula] kel= slope of ln(C)=f(temps) calculated on the last points of the curves (elimination phase)/ MIV-701 exposure (Area Under the Curve; AUCt) was calculated according to trapezoidal method accroding to the following formula: AUCt−>inf = [C]t /kel [formula]

[3] = human healthy volunteers, cited from earlier work; for MIV-701/MIV06404 ratio: single oral administration
[4] = plasma MIV-701, oral 2 mg/kg once daily, Day 13 (repeated)
[5] = plasma MIV-701, oral 2 mg/kg, Day 0 (single)
[6] = plasma MIV-701, oral 10 mg/kg once daily, Day 13 (repeated)
[7] = plasma MIV-701, oral 10 mg/kg, Day 0 (single)
[8] = plasma MIV-701, oral 50 mg/kg, Day 0 (single)

CC(C)C[C@H](NC(=O)c1ccc(-c2csc(N3CCN(C)CC3)n2)cc1)C(=O)N1C[C@H](F)[C@H]2OCC(O)(O)[C@H]21 [MIV-701 besylate salt, N-[(S)-1-((3aS,6S,6aS)-6-Fluoro-S-oxo-hexahydro-furo[3,2-b]pyrrole-4-carbony)-3-methyl-butyl]-4-[2-(4-methyl-piperazin-1-yl)-thiazol-4-yl]-benzamide benzenesulphonate]
depth of the alveolar bone defect ([1]; CBCT-images): Only favorable trends | width of the alveolar bone defect ([1]; CBCT-scan and X-ray radiography): significantly reduced | height of the alveolar crest ([1]; CBCT-scan images): Significant improvements | depth of the alveolar bone loss ([1]; X-ray images): significant improvements | height of the alveolar crest ([1]; X-ray radiography): only favorable trends | plasma exposure (AUC) at D13 higher than AUC at D0 ([2]; 2 mg/kg): 1.2 folds | plasma exposure (AUC) at D13 higher than AUC at D0 ([2]; 10 mg/kg): 1.9 folds | Cmax at 312 h [2, 4]: 141 nM | Tmax at 312 h [2, 4]: 2 h | AUC(0-inf) at 312 h [2, 4]: 0.984 µM·h | AUC(0-t) at 312 h [2, 4]: 0.972 µM·h | half-life at 312 h [2, 4]: 3.9 h | Cmax [2, 5]: 122 nM | Tmax at 0 h [2, 5]: 2 h | AUC(0-inf) [2, 5]: 0.811 µM·h | AUC(0-t) [2, 5]: 0.808 µM·h | half-life [2, 5]: 2.9 h | Cmax at 312 h [2, 6]: 663 nM | Tmax at 312 h [2, 6]: 0.5 h | AUC(0-inf) at 312 h [2, 6]: 5.3 µM·h | AUC(0-t) at 312 h [2, 6]: 5.07 µM·h | half-life at 312 h [2, 6]: 5.7 h | Cmax [2, 7]: 249 nM | Tmax at 0 h [2, 7]: 2 h | AUC(0-inf) [2, 7]: 2.85 µM·h | AUC(0-t) [2, 7]: 2.78 µM·h | half-life [2, 7]: 4.6 h | Cmax [2, 8]: 3890 nM | Tmax at 0 h [2, 8]: 2 h | AUC(0-inf) [2, 8]: 34.8 µM·h | AUC(0-t) [2, 8]: 33.6 µM·h | half-life [2, 8]: 4.9 h | Kel (4-24h) [2, 4]: -0.179 h⁻¹ | Kel (4-24h) [2, 5]: -0.236 h⁻¹ | Kel (4-24h) [2, 6]: -0.122 h⁻¹ | Kel (4-24h) [2, 7]: -0.152 h⁻¹ | Kel (4-24h) [2, 8]: -0.142 h⁻¹ | MIV-701/MIV-06404 exposure ratio ([3]; single administrations, dose not stated): 0.03 | MIV-701/MIV06404 ratio ([3]; 25 mg): 0.01 | MIV-701/MIV06404 ratio ([3]; 75 mg): 0.02 | MIV-701/MIV06404 ratio ([3]; 150 mg): 0.03 | MIV-701/MIV06404 ratio ([3]; 300 mg): 0.04
